The target in the experiment is T1, hPARG (Homo sapiens, UniProt Q86W56).
T1 construct: made in house; host or cells: E. coli
T1 sequence (Q86W56 whole entry): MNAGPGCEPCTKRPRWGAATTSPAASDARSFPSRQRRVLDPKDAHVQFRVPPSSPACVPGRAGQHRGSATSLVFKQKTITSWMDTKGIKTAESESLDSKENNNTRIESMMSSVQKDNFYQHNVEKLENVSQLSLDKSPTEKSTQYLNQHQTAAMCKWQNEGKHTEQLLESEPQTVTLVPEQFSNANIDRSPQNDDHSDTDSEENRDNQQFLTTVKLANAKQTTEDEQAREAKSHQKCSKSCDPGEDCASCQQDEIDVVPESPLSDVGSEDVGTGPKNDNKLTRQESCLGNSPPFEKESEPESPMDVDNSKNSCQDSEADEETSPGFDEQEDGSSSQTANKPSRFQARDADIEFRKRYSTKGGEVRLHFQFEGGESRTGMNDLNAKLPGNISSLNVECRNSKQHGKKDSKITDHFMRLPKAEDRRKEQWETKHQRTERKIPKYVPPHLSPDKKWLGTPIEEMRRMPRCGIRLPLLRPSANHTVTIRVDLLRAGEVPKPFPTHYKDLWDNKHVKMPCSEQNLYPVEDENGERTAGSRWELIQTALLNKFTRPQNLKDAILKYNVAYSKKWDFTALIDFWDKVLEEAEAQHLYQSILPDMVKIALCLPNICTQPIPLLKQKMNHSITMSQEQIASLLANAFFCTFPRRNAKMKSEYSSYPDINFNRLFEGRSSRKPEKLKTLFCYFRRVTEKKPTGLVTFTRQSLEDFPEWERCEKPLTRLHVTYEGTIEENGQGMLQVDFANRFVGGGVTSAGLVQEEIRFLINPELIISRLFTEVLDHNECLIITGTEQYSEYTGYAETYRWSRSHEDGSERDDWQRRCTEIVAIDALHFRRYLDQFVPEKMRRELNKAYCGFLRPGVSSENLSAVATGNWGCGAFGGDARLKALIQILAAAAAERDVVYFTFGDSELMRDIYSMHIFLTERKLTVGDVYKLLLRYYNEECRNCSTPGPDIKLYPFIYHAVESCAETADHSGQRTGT
Put plainly: PARG enzymatic activity assay (HTRF). As to conditions: C-terminal His6-tag hPARG 65 pM, biotinylated-NAD ribosylated PARP1 substrate 8 nM. In kind it is biochemical. In outline: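 His6-tagged hPARG from E. coli (65 pM final) preincubated 60 min RT with compound (10-point 4-fold dilution), then 8 nM biotinylated NAD-ribosylated PARP1 added for 10 min RT in Tris pH 7.4 buffer with EDTA, EGTA, DTT, KCl. HTRF detection (Eu-streptavidin/anti-His XL665, 620/665 nm); IC50 from 4-parameter fit against DMSO and no-enzyme controls.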
(In general: Time-resolved FRET reads energy transfer from a long-lived donor to a nearby acceptor.)
For the compound `CN(CC(=O)O)c1ncnc2c1c1ccc(S(=O)(=O)NC3(C#N)CC3)cc1n2-c1nnc(C(F)F)s1` [Example 19, N-(7-(N-(1-Cyanocyclopropyl)sulfamoyl)-9-(5-(difluoromethyl)-1,3,4-thiadiazol-2-yl)-9H-pyrimido[4,5-b]indol-4-yl)-N-methylglycine], the IC50 is not above 0.1 µM.

`CCN(CC)[C@H]1CCN(c2ncnc3c2c2ccc(S(=O)(=O)NC4(C#N)CC4)cc2n3-c2nnc(C(F)F)s2)C[C@@H]1F` [Example 32, N-(1-Cyanocyclopropyl)-4-((3S,4S)-4-(diethylamino)-3-fluoropiperidin-1-yl)-9-(5-(difluoromethyl)-1,3,4-thiadiazol-2-yl)-9H-pyrimido[4,5-b]indole-7-sulfonamide] came in with an IC50 not above 0.1 µM.

`CN1CCN(c2ncnc3c2c2ccc(S(=O)(=O)NC4(C#N)CC4)cc2n3-c2nnc(C(F)F)s2)CC12CC2` [Example 48, N-(1-Cyanocyclopropyl)-9-(5-(difluoromethyl)-1,3,4-thiadiazol-2-yl)-4-(4-methyl-4,7-diazaspiro[2.5]octan-7-yl)-9H-pyrimido[4,5-b]indole-7-sulfonamide] yielded an IC50 not above 0.1 µM. `N#CC1(NS(=O)(=O)c2ccc3c4c(NCCN5CCOCC5)ncnc4n(-c4nnc(C(F)F)s4)c3c2)CC1` [Example 16, N-(1-Cyanocyclopropyl)-9-(5-(difluoromethyl)-1,3,4-thiadiazol-2-yl)-4-((2-morpholinoethyl)amino)-9H-pyrimido[4,5-b]indole-7-sulfonamide]: the 50% inhibitory concentration (IC50) is not above 0.1 µM.

Regarding `Cc1nc2n(n1)CCN(c1ncnc3c1c1ccc(S(=O)(=O)NC4(C#N)CC4)cc1n3-c1nnc(C(F)F)s1)C2` [Example 55, N-(1-Cyanocyclopropyl)-9-(5-(difluoromethyl)-1,3,4-thiadiazol-2-yl)-4-(2-methyl-5,6-dihydro-[1,2,4]triazolo[1,5-a]pyrazin-7(8H)-yl)-9H-pyrimido[4,5-b]indole-7-sulfonamide], the IC50 was not above 0.1 µM. `N#CC1(NS(=O)(=O)c2ccc3c4c(N5CCO[C@@H](CO)C5)ncnc4n(-c4nnc(C(F)F)s4)c3c2)CC1` [Example 42, (R)-N-(1-Cyanocyclopropyl)-9-(5-(difluoromethyl)-1,3,4-thiadiazol-2-yl)-4-(2-(hydroxymethyl)morpholino)-9H-pyrimido[4,5-b]indole-7-sulfonamide] gave an IC50 not above 0.1 µM.

Take `N#CC1(NS(=O)(=O)c2ccc3c4c(N5C[C@H]6C[C@@H]5CC6(F)F)ncnc4n(-c4nnc(C(F)F)s4)c3c2)CC1` [Example 40, N-(1-Cyanocyclopropyl)-4-((1R,4R)-5,5-difluoro-2-azabicyclo [2.2.1]heptan-2-yl)-9-(5-(difluoromethyl)-1,3,4-thiadiazol-2-yl)-9H-pyrimido[4,5-b]indole-7-sulfonamide]: the IC50 lay within 0.1 to 1 µM. The compound `CCN(CC)[C@@H]1CCN(c2ncnc3c2c2ccc(S(=O)(=O)NC4(C#N)CC4)cc2n3-c2nnc(C(F)F)s2)C[C@@H]1OC` [Example 50, N-(1-Cyanocyclopropyl)-4-((3S,4R)-4-(diethylamino)-3-methoxypiperidin-1-yl)-9-(5-(difluoromethyl)-1,3,4-thiadiazol-2-yl)-9H-pyrimido[4,5-b]indole-7-sulfonamide] had an IC50 not above 0.1 µM. Turning to `CC(C)C(=O)N1CCN(CCOc2ncnc3c2c2ccc(S(=O)(=O)NC4(C#N)CC4)cc2n3-c2nnc(C(F)F)s2)CC1` [Example 4, N-(1-Cyanocyclopropyl)-9-(5-(difluoromethyl)-1,3,4-thiadiazol-2-yl)-4-(2-(4-isobutyrylpiperazin-1-yl)ethoxy)-9H-pyrimido[4,5-b]indole-7-sulfonamide], the concentration for half-maximal inhibition (IC50) is not above 0.1 µM. `CN(CCc1ccccn1)c1ncnc2c1c1ccc(S(=O)(=O)NC3(C#N)CC3)cc1n2-c1nnc(C(F)F)s1` [Example 76, N-(1-Cyanocyclopropyl)-9-(5-(difluoromethyl)-1,3,4-thiadiazol-2-yl)-4-(methyl(2-(pyridin-2-yl)ethyl)amino)-9H-pyrimido[4,5-b]indole-7-sulfonamide] showed a half-maximal inhibitory concentration (IC50) not above 0.1 µM.

Broadly, the IC50 is the concentration that inhibits the measured activity by half. High values mean a need for much substance, low ones inhibition by little substance.

Values taken from patent US20260049088A1, “TRICYCLIC HETEROCYCLIC DERIVATIVES, COMPOSITIONS AND USES THEREOF” (Danatlas Pharmaceuticals Co., Ltd., priority 2023, published 2026).
